In US9283235B2, “Intermittent lowering of cortisol as treatment of clinical conditions associated with abnormal concentrations of cortisol in animals” (Stegram Pharmaceuticals Limited, priority 2001, dated 2016):
Values joined by “and” are separate entries in the source; they are usually repeats but may differ in a detail not shown here. Identical values can stand only once. “Also recorded” adds a separate entry of the source.

Key:
[1] = test system: hypothalamic-pituitary-adrenal axis; assay: Combined dexamethasone suppression / TRH stimulation test, serum cortisol in horses; format: in vivo, horse
Experimental: The ability of intermittent administration of Trilostane to block adrenal steroidogenesis was assessed in twenty horses (mean age 21, SD 5.7 years) with equine Cushing's disease. The combined dexamethasone suppression thyrotropin releasing hormone (TRH) stimulation test (17 horses) or TRH stimulation test (3 horses) was used as a standard test of function of the hypothalamic-pituitary-adrenal axis. Serum samples for cortisol analysis were collected via indwelling catheter at 4-hourly intervals over 24 hours on each of the test periods. These were before treatment then at 210 minutes (30 min after I mg i.v. TRH) and 22 hours after […] dexamethasone i.m. Affected horses were treated with 0.4 to 1 mg/kg, (mean 0.5 mg/kg) trilostane administered once daily in feed for a period of 30 days. After 30 days endocrine testing was repeated. Serum cortisol before and after treatment was compared by paired t-test.
This is similar to the post ACTH stimulation in the dogs. The adrenal gland is not responding to stimulation by pituitary hormone in the same way as before trilostane treatment.

[2] = test system: dogs with hyperadrenocorticism (HAC); assay: Tolerability and adverse events of trilostane in dogs with HAC; format: in vivo, dog
Experimental: (§1) Follow-up re-examinations took place after 10 days, 4 weeks, 3 mouths, 6 months and then every 6 months or within 4 weeks of adjusting the dosage. At these points, owners were carefully questioned about their perception of the dogs general well being, dissolution of clinical signs and potential side effects and a physical examination was performed. A full biochemical profile and an ACTH stimulation test were carried out. Further tests such as urinanalysis, urine culture, thoracic radiographs, etc. were done if deemed necessary. If the clinical sips of hyperadrenocorticism (polyuria/polydipsia, polyphagia, exercise intolerance, etc.) were still present and if the post-ACTH cortisol concentration remained above 220 nmol/l, trilostane was given twice daily at the same dosage.
Starting dose was between 1.8 and 20 mg/kg (mean: 6.0; SD 3.4 mg/kg). […] Two cross bred dogs with classical clinical signs and endocrine testing results of HAC were started on 6.5 and 7.5 mg/kg trilostane. […] One of the dogs also was hyperkalaernic and hyponatraemic (ratio:22.3). In both dogs no more trilostane was given thereafter and the dogs are free of clinical signs after 2.7 and 1.4 years. In the 9 dogs with adrenal tumours, which started on the same dosing protocol as the dogs with PDH, two had the dose halved, three stayed on the original dose while in 4 dogs the dose was increased up to 300% of the original dose.

[3] = test system: serum cortisol; assay: Canine serum cortisol over 24 hours pre and post trilostane; format: in vivo, dog; settings: for Canine serum cortisol, post: individual dogs; for Canine serum cortisol, post, Mean: mean of dogs
Source text: With this level of lowering there was relief of the symptoms of the Cushing's disease.

[4] = Trilostane and ketotrilostane concentrations in dogs after a single daily dose; format: in vivo, dog
Experimental: Trilostane concentrations in the plasma of 6 dogs: day 0, phase 1 (one 60 mg capsule per day), study no. GB009/01-001.
Ketotrilostane concentrations in the plasma of 6 dogs: day 0, phase 1 (one 60 mg capsule per day), study no. GB009/01-001.
The significance of this is that the metabolite, ketotrilostane, is not retained in the body for an extended period of time.

[5] = test system: advanced breast cancer; settings: published studies (Williams et al 1993; Ingle et al 1990); cited from earlier work
[6] = test system: dogs with Alopecia X; assay: Treatment of Alopecia X in dogs, hair re-growth; format: in vivo, dog; settings: once-daily dose
Source text: To study the effect of trilostane in the treatment of Alopecia X a total of 11 dogs with the condition were examined along with 10 unaffected dogs. The hormonal abnormalities were identified, with increases in cortisol and 17 OHP concentrations. Trilostane in a once-daily dose was given to the affected animals. Five of the six Pomeranians (83%) and all four of the Miniature poodles have responded to trilostane, showing hair re-growth in the affected areas.

[7] = test system: dogs with hyperadrenocorticism (HAC); assay: Prospective study of trilostane in dogs with spontaneous hyperadrenocorticism (HAC): clinical signs and survival; format: in vivo, dog
Experimental: Animals were entered into a prospective study and all animals required clinical and laboratory signs of hyperadrenocorticism as well as a final diagnosis of this disease. Data collected from each case included a clinical-historicy and physical examination, full blood count (CBC), serum biochemical profile, urinalysis and abdominal ultrasound. An ACTH-stimulation test was performed in all dogs. […] Dogs that had been treated for HAC other medication needed to be off these drugs for at least 10 days. Dogs with renal or hepatic insufficiency and dogs that received steroids were not included in the study.
Dogs with pituitary dependant hyperadrenocorticism or adrenal tumour which was unresectable or the owners were unwilling to have surgery performed, respectively, were treated with trilostane. The initial dose for dogs[…] was 30 mg once daily, dogs between 5 and 15 kg received 60 mg once daily and dogs>15 kg received 120 mg once daily. Dosages were adjusted based on clinical signs, blood biochemical parameters and an ACTH stimulation test.
as §1

[8] = Table 2, individual horses, after trilostane
[9] = Table 5, individual horses, after 30 days 0.4–1.0 mg/k
[10] = mean of horses, after 30 days trilostane

Compound: CC12CCC3C(CC[C@@]45O[C@@H]4C(=O)C(C#N)CC35C)C1CC[C@@H]2O (stereo partly drawn) [Trilostane, 2α-cyano-4α,5α-epoxyandrostan-17β-ol-3-one]
- Serum cortisol Post-Treatment Base [1, 8]: 160 and 236 and 116 and 254 and 149 and 127 and 112 and 136 and 65 and 202 and 81 and 100 and 209 and 189 and 121 and 288
- Serum cortisol Post-Treatment Post Dex [1, 8]: 170 and 149 and 118 and 113 (2×) and 82 and 81 (2×) and 163 and 50 and 101 and 138 and 47 and 1 and 153
- Serum cortisol Post-Treatment Post TRH [1, 8]: 114 and 316 and 167 and 193 and 93 and 79 and 139 and 158 and 170 and 88 and 150 and 117 and 100 (2×) and 138 and 224
- % change ([1]; Table 2, individual horses, pre vs post treatment): −60.5% and −69% and −8% and −84% and −82% and −16% and −5% and −27% and −233% and −50% and −1% and −10% and 18% and −57% and 1% and −15.8%
- Different, pre-post: % TRH resp ([1]; Table 5, individual horses): 60% and 69% and 8% and 84% and 52% and 16% (2×) and 5% and 27% and 152% and 50% and 1% and 11% and −18% and 57% and 37%
- Different, pre-post: Base ([1]; Table 5, individual horses): -33 nmol/L and -105 nmol/L and 15 nmol/L and -118 nmol/L and -124 nmol/L and -23 nmol/L and 20 nmol/L and -8 nmol/L and 8 nmol/L and 29 nmol/L and 5 nmol/L and 2 nmol/L and 65 nmol/L and -18 nmol/L and 22 nmol/L and -95 nmol/L
- Different, pre-post: post Dex ([1]; Table 5, individual horses): −20 nmol/l and 12 nmol/l and 4 nmol/l and −10 nmol/l and 7 nmol/l (2×) and −16 nmol/l and −17 nmol/l and 107 nmol/l and 5 nmol/l and 15 nmol/l and −40 nmol/l and 23 nmol/l and 60 nmol/l and −67 nmol/l
- Different, pre-post: post TRH ([1]; Table 5, individual horses): 53 nmol/L and -50 nmol/L and 32 nmol/L and 27 nmol/L and 49 nmol/L and 2 nmol/L and 31 nmol/L and 25 nmol/L and 66 nmol/L and 130 nmol/L and 10 nmol/L and 8 nmol/L and -19 nmol/L and 84 nmol/L and 71 nmol/L and -43 nmol/L
- Cortisol post Trilostane Base [1, 9]: 160 nmol/L and 236 nmol/L and 116 nmol/L and 254 nmol/L and 149 nmol/L and 127 nmol/L and 112 nmol/L and 136 nmol/L and 65 nmol/L and 202 nmol/L and 81 nmol/L and 100 nmol/L and 209 nmol/L and 189 nmol/L and 121 nmol/L and 288 nmol/L
- Cortisol post Trilostane post Dex [1, 9]: 170 nmol/l and 149 nmol/l and 118 nmol/l and 113 nmol/l (2×) and 82 nmol/l and 81 nmol/l (2×) and 163 nmol/l and 50 nmol/l and 101 nmol/l and 138 nmol/l and 47 nmol/l and 1 nmol/l and 153 nmol/l
- Cortisol post Trilostane post TRH [1, 9]: 114 nmol/l and 316 nmol/l and 167 nmol/l and 193 nmol/l and 93 nmol/l and 79 nmol/l and 139 nmol/l and 158 nmol/l and 170 nmol/l and 88 nmol/l and 150 nmol/l and 117 nmol/l and 100 nmol/l (2×) and 138 nmol/l and 224 nmol/l
- post Trilostane % TRH resp [1, 9]: −29% and 34% and 44% and −24% and −38% (2×) and 24% and 16% and 162% and −56% and 85% and 17% and −52% and −27% and −17% and −22%
- Cortisol response to TRH / Dex pre vs post trilostane, in words ([1]; horses, single daily dose): lowering of the response to TRH; also recorded: decrease in cortisol response to TRH administration
- Different, pre-post: % TRH resp, group mean ([1]; mean of horses): 39.2%
- Different, pre-post: Base, group mean ([1]; mean of horses): -22 nmol/L
- Different, pre-post: post Dex, group mean ([1]; mean of horses): 5 nmol/L
- Different, pre-post: post TRH, group mean ([1]; mean of horses): 30 nmol/L
- Cortisol post Trilostane post Dex, group mean ([1]; mean of horses, 22 hours post dexamethasone, after 30 days trilostane): 104 nmol/L
- Cortisol post Trilostane Base, group mean [1, 10]: 159 nmol/L
- Cortisol post Trilostane post TRH, group mean [1, 10]: 147 nmol/L
- Biochemistry abnormalities during the course of therapy ([2]; all without clinical consequence): one episode of hyperkalaemia, two episodes of azotaemia, three episodes of hyperbilirubinaemia and two episodes of hypercalcaemia
- Acute deaths ([2]; dog, in vivo): Three dogs died acutely at home
- Tolerability ([2]; starting dose 1.8 to 20 mg/kg): generally well tolerated
- Hyperkalaemia and hyponatraemia ([2]; trilostane stopped, both dogs euthanised): two dogs showed hyperkalaemia and hyponatraemia prior to clinical deterioration
- ACTH stimulation test leading to stop of the drug ([2]; two cross bred dogs started on 6.5 and 7.5 mg/kg, after two and three months): both showed a flat-lined ACTH stimulation test
- Serum cortisol lowering after daily dose, in words ([3]; dogs with Cushing's disease): reduced significantly at 4 hrs
- Canine serum cortisol, post ([3]; 4 hrs after dose, Trilostane 5–10 mg/k over 4–21 days): 5 nmol/l (4×) and 62 nmol/l (2×) and 10 nmol/l and 60 nmol/l and 57 nmol/l and 63 nmol/l
- Canine serum cortisol, post ([3]; 8 hrs after dose): 5 nmol/l (4×) and 48 nmol/l and 171 nmol/l and 51 nmol/l and 262 nmol/l and 183 nmol/l and 315 nmol/l
- Canine serum cortisol, post ([3]; 12 hrs after dose): 5 nmol/l and 75 nmol/l and 83 nmol/l and 66 nmol/l (2×) and 158 nmol/l and 197 nmol/l and 143 nmol/l and 164 nmol/l and 318 nmol/l
- Canine serum cortisol, post ([3]; 19 hrs after dose): 52 nmol/l and 101 nmol/l and 92 nmol/l and 63 nmol/l and 85 nmol/l and 183 nmol/l (3×) and 139 nmol/l and 230 nmol/l
- Canine serum cortisol, post ([3]; 20 hrs after dose): 166 nmol/l and 105 nmol/l and 86 nmol/l and 97 nmol/l and 61 nmol/l and 154 nmol/l and 144 nmol/l (2×) and 108 nmol/l and 199 nmol/l
- Canine serum cortisol, post ([3]; 24 hrs after dose): 117 nmol/L and 109 nmol/L and 51 nmol/L and 74 nmol/L and 66 nmol/L and 171 nmol/L and 144 nmol/L and 131 nmol/L and 154 nmol/L and 246 nmol/L
- Canine serum cortisol, post ([3]; 28 hrs after dose): 147 nmol/L and 112 nmol/L and 75 nmol/L and 86 nmol/L and 53 nmol/L and 124 nmol/L and 190 nmol/L and 174 nmol/L and 246 nmol/L and 313 nmol/L
- Canine serum cortisol, post, Mean ([3]; 4 hrs): 33 nmol/L
- Canine serum cortisol, post, Mean ([3]; 8 hrs): 105 nmol/L
- Canine serum cortisol, post, Mean ([3]; 12 hrs): 130 nmol/L
- Canine serum cortisol, post, Mean ([3]; 19 hrs): 131 nmol/L
- Canine serum cortisol, post, Mean ([3]; 20 hrs): 126 nmol/L
- Canine serum cortisol, post, Mean ([3]; 24 hrs): 126 nmol/L
- Canine serum cortisol, post, Mean ([3]; 28 hrs): 152 nmol/L
- Elimination of trilostane ([4]; after single daily dose): rapid elimination
- Time of peak serum concentration of trilostane ([4]; after single daily dose (FIG. 1, one 60 mg capsule per day, 6 dogs)): 1 to 3 h
- Response rate [5]: 29% and 38%
- Miniature poodles responding, hair re-growth in the affected areas [6]: all four
- Pomeranians responding, hair re-growth in the affected areas ([6]; five of six): 83%
- Mean time to euthanasia or death, dogs with PDH ([7]; 22 dogs, SD 195.1, range 27-730 days): 230.9 days
- Mean time since commencing treatment, dogs with PDH alive ([7]; 32 dogs, SD 285.2, range 105 to 1120 days): 417.3 days
- Skin abnormalities ([7]; all dogs with skin abnormalities, 2-3 months after starting): marked improvement with normal hair growth
- Dogs in which polyuria/polydipsia and polyphagia dissipated within the first 10 days of treatment ([7]; dog, in vivo): 29 dogs
- Dogs in which polyuria/polydipsia and polyphagia dissipated within the first month of treatment ([7]; dog, in vivo): 14 dogs
- Dogs with clinical signs improved but always some clinical signs of HAC ([7]; dog, in vivo): 6 dogs
- Dogs with PDH alive ([7]; of 54 dogs with PDH): 32 dogs
- Median survival, dogs with adrenal tumour that died or were euthanised ([7]; six dogs, SD 174.9 days): 260 days
